Experimental data published in patent publication US20230381139A1, “METHODS OF TREATING AND/OR PREVENTING ALZHEIMER’S DISEASE WITH R-CARVEDILOL” (priority 2020, published 2023).

Tests used:
[1] = system: 5×FAD+/− mice; test: Learning and memory tests (Morris water maze, novel object recognition) in 5×FAD+/− mice; type: in vivo, mouse; conditions: for learning and memory impairments (MWM, NOR): 4-6 months old 5×FAD mice
Method: Adult genetically engineered mice, 5×FAD^+/− (Oakley et al., 2006), RyR2-E4872Q^+/− (EQ^+/−) (Chen et al., 2014), 5×FAD^+/−/RyR2-E4872Q^+/− (5×FAD^+/−/EQ^+/−), and wildtype (WT) littermates of both sexes were used. R-carvedilol (R-CV) (at doses of 0.8, 1.6 or 3.2 mg/kg/day), racemic carvedilol (3.2 mg/kg/day), and vehicle control (DMSO) were delivered to 5×FAD^+/− mice in drinking water for one month, starting at different ages before (2-3 months old) or after (3-4 months old) the occurrence of AD pathologies (Oakley et al., 2006). To assess the effects of genetically and pharmacologically limiting RyR2 open time on the prevention and rescue of AD deficits in different stages (early, moderate, and late) of AD progression, animals at different ages (from 2-15 months) were used. As reported (Oakley et al., 2006), there was an age-dependence of AD progression in the 5×FAD^+/− mice. No sex-dependent differences in AD progression in these mice was observed. For 2-photon Ca^2+ imaging experiments, 5×FAD, RyR2 WT, and RyR2 mutant mice were cross-bred with the heterozygous Thy1-GCaMP6f transgenic mice (Chen et al., 2012; Chen et al., 2013) (GP5.17, JAX 025393) to express the GCaMP6f Ca^2+ sensing probe (driven by the Thy1 promotor) in hippocampal neurons in each of the genotypes used.
The learning and memory of mice with all genotypes were evaluated using the Morris water maze (MWM) test, the Barnes maze (BM) test, and/or the novel object recognition (NOR) test. Experiments were carried out blindly. For the MWM test, mice at different ages were trained to localize a hidden escape platform (10×10 cm) in a circular pool (116.84 cm in diameter, 50 cm in depth) (San Diego Instruments, CA) via distal visual cue. The platform was submerged 1-2 cm beneath the surface in water (22-24°C.), which was rendered opaque by addition of milk powder. The localization of the pool in relation to visual cues was maintained constantly during the entire task. The cues were distinct in color and shape. Digital division of the tracking area (pool) into four quadrants was performed by the SMART video tracking system, Smart 3.0 (Panlab Harvard Apparatus; Barcelona Spain). The escape platform was placed in the centre of the south-west quadrant for the entirety of the learning phase (4 training days) and digitally defined as target. Spatial training consisted of 4 days with 5 trials per mouse per day. Mice were released with their heads facing the pool wall at one of four entry locations (north, east, south and west) in a non-repetitive random order. Swimming was automatically video-tracked until the subject found the escape platform and remained on it (≥5 sec), or until a maximum of 60 seconds. […] In between trials (inter-trial interval ≥10 min), mice were housed in heated cages to avoid performance deficits due to exhaustion or hypothermia. The latency and swimming speed to reach the escape platform were recorded for comparison. After the learning phase, memory retention was evaluated by one probe trial 24 hours after the last training session. The escape platform was removed before mice were released from the north entry point into the pool. Their swimming was video-tracked for 60 seconds. The area at the location of the removed hidden platform was defined as the target and the south-west quadrant the target quadrant. The percentage of time mice spent in the target quadrant (including the target) were measured for comparison.
For the NOR test, mice were habituated for 10 min per mouse in an equally illuminated, odor-free, white, plastic box (40×40×50 cm^3) embedded with fresh aspen shavings and shreds. In between each mouse trial the box was wiped with ethanol to avoid odor-induced stress. 24 hours after habituation, two identical objects ware placed at equal distance to each other and the corners of the box. Each mouse was placed into the center, and allowed to move freely for 10 min. Mice were video recorded during this familiarizing phase. […]

[2] = system: Aβ plaques; test: Aβ plaques (immunohistochemical staining) in 3×TG+/− mice; type: in vivo, mouse; conditions: 12-15 months old 3×TG+/− mice, 3.2 mg/kg/day for one month; vs DMSO
Method: Genetically engineered mice of 12-15 months old, 3×TG+/− (Oddo et al., 2003), RyR2-E4872Q+/− (EQ+/−)(Chen et al., 2014), 3×TG+/−/RyR2-E48720+/− (3×TG+/−/EQ+/−), and WT littermates of both sexes were used. Sex differences, which may produce biological variables, were not investigated in this study. R-carvedilol (R-CV) (3.2 mg/kg/day) and vehicle control (DMSO) were delivered to 3×TG+/− mice in drinking water for one month. As shown previously, only heterozygous RyR2-E4872Q+/− mutant mice were produced as homozygous E4872Q+/+mutation is embryonic lethal (Chen et al., 2014). Functional RyR2s are tetrameric channels formed by 4 RyR2 monomers. The heterozygous E4872Q+/− mutant mice (harboring one WT allele and one E4872Q mutant allele) will produce a mixture of homo- and hetero-tetrameric channels that contain the WT, E48720 mutant, or both WT/E4872Q mutant monomers. Thus, the RyR2-E4872Q mutation can exert its negative impact not only on the function of the E4872Q homo-tetramers, but also on the function of the WT monomer in the WT/E4872Q hetero-tetrameric channels.
Mice of different ages and genotypes were anesthetized and transcardially perfused with 10% neutral buffered formalin (NBF). Whole brains were removed and post-fixed in NBF for at least 24 h. The fixed brains were then embedded in paraffin after dehydration and diaphanization. […]

[3] = system: RyR2; conditions: cardiac cells; cited from earlier work

Compound: COc1ccccc1OCCNC[C@@H](O)COc1cccc2[nH]c3ccccc3c12 [R-carvedilol, R-(+)-carvedilol]
- learning and memory impairments (MWM, NOR) ([1]; 1.6 mg/kg/day for one month, vs DMSO): rescued
- memory loss / learning and memory deficits (MWM, NOR) ([1]; 3.2 mg/kg/day for one month started at 2-3 months of age (before AD symptoms), tested at 3-4 months, vs DMSO): prevented
- memory loss (MWM, NOR) ([1]; 3.2 mg/kg/day for one month started at 3-4 months of age (after AD symptom), tested at 4-5 months, vs DMSO): rescued
- learning and memory impairments (MWM, NOR) ([1]; 3.2 mg/kg/day for one month, vs DMSO): rescued
- beneficial effect on learning and memory, dependence on dose ([1]; 0.8, 1.6, 3.2 mg/kg/day for one month, 5×FAD mice): dose-dependent
- memory deficits (MWM, NOR) ([1]; 6-7 and 10-12 months old 5×FAD+/− mice (late stages of AD), 3.2 mg/kg/day for 1 month, vs DMSO): rescued
- area of Aβ plaques in the hippocampal region [2]: no significant difference
- number of Aβ plaques in the hippocampal region [2]: no significant difference
- RyR2 open time [3]: shortened
